System: 485176-168-R4-J1-PDC spheroids with HUVEC/MSC, viability
Experiment: Anticancer human tumor 485176-168-R4-J1-PDC patient-derived pancreatic adenocarcinoma cell line growth inhibition [GQUAD]
Conditions: for IC50: curve of first compound; for viability, T/C: stronger effect = lower value
How it was run: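 Multi-cell-type spheroids of tumor cells with HUVEC and mesenchymal stem cells, treated with drug combinations. Concentrations descend in half-log steps from near clinical Cmax, or from 10 microM where Cmax is unknown; viability read-out.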

[1] = second compound 0.0316 µM, first compound 0.0316 µM
[2] = second compound 0.0316 µM, first compound 0.1 µM
[3] = second compound 0.0316 µM, first compound 0.316 µM
[4] = second compound 0.0316 µM, first compound 1 µM
[5] = second compound 0.0316 µM, first compound 3.16 µM
[6] = second compound 0.0316 µM, first compound 10 µM
[7] = second compound 0.1 µM, first compound 0.0316 µM
[8] = second compound 0.1 µM, first compound 0.1 µM
[9] = second compound 0.1 µM, first compound 0.316 µM
[10] = second compound 0.1 µM, first compound 1 µM
[11] = second compound 0.1 µM, first compound 3.16 µM
[12] = second compound 0.1 µM, first compound 10 µM
[13] = second compound 0.316 µM, first compound 0.0316 µM
[14] = second compound 0.316 µM, first compound 0.1 µM
[15] = second compound 0.316 µM, first compound 0.316 µM
[16] = second compound 0.316 µM, first compound 1 µM
[17] = second compound 0.316 µM, first compound 3.16 µM
[18] = second compound 0.316 µM, first compound 10 µM
[19] = second compound 1 µM, first compound 0.0316 µM
[20] = second compound 1 µM, first compound 0.1 µM
[21] = second compound 1 µM, first compound 0.316 µM
[22] = second compound 1 µM, first compound 1 µM
[23] = second compound 1 µM, first compound 3.16 µM
[24] = second compound 1 µM, first compound 10 µM
[25] = second compound 3.16 µM, first compound 0.0316 µM
[26] = second compound 3.16 µM, first compound 0.1 µM
[27] = second compound 3.16 µM, first compound 0.316 µM
[28] = second compound 3.16 µM, first compound 1 µM
[29] = second compound 3.16 µM, first compound 3.16 µM
[30] = second compound 3.16 µM, first compound 10 µM
[31] = second compound 10 µM, first compound 0.0316 µM
[32] = second compound 10 µM, first compound 0.1 µM
[33] = second compound 10 µM, first compound 0.316 µM
[34] = second compound 10 µM, first compound 1 µM
[35] = second compound 10 µM, first compound 3.16 µM
[36] = second compound 10 µM, first compound 10 µM
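Also: spheroids exposed to compounds for seven days before readout.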
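For viability, T/C in this document: percent viability relative to DMSO vehicle control wells as 100%.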

CC(C)(O)C1CCC(Nc2ccc3ncc(-c4cccc(C(F)(F)F)c4)n3n2)CC1 (stereo unspecified) + CN(C)c1ccc(Nc2c3ccc(NC(=O)CCN4CCCC4)cc3nc3cc(NC(=O)CCN4CCCC4)ccc23)cc1
IC50 (second compound 0.0316 µM): > 10000 nM
IC50 (second compound 0.1 µM): > 10000 nM
IC50 (second compound 0.316 µM): > 10000 nM
IC50 (second compound 1 µM): 6250 nM
IC50 (second compound 3.16 µM): 2740 nM
IC50 (second compound 10 µM): 1500 nM
viability, T/C [1]: 101%
viability, T/C [2]: 104%
viability, T/C [3]: 86.1%
viability, T/C [4]: 78.8%
viability, T/C [5]: 56.7%
viability, T/C [6]: 51.1%
viability, T/C [7]: 83.8%
viability, T/C [8]: 89.5%
viability, T/C [9]: 88.7%
viability, T/C [10]: 77.7%
viability, T/C [11]: 64.5%
viability, T/C [12]: 51%
viability, T/C [13]: 104%
viability, T/C [14]: 84.6%
viability, T/C [15]: 100%
viability, T/C [16]: 97.9%
viability, T/C [17]: 56.2%
viability, T/C [18]: 59.1%
viability, T/C [19]: 111%
viability, T/C [20]: 104%
viability, T/C [21]: 82.2%
viability, T/C [22]: 91.4%
viability, T/C [23]: 56.6%
viability, T/C [24]: 42.1%
viability, T/C [25]: 88.1%
viability, T/C [26]: 81.1%
viability, T/C [27]: 92.1%
viability, T/C [28]: 97.7%
viability, T/C [29]: 44.4%
viability, T/C [30]: 37.3%
viability, T/C [31]: 89%
viability, T/C [32]: 85.7%
viability, T/C [33]: 72.6%
viability, T/C [34]: 65.9%
viability, T/C [35]: 25.4%
viability, T/C [36]: 16.4%

COc1ncnc(C2CC2)c1-c1ncc2cnn(Cc3ccc(-c4nc(C(F)(F)F)cn4C(C)C)cc3)c2n1 + CN(C)c1ccc(Nc2c3ccc(NC(=O)CCN4CCCC4)cc3nc3cc(NC(=O)CCN4CCCC4)ccc23)cc1
IC50 (second compound 0.0316 µM): > 10000 nM
IC50 (second compound 0.1 µM): > 10000 nM
IC50 (second compound 0.316 µM): > 10000 nM
IC50 (second compound 1 µM): > 10000 nM
IC50 (second compound 3.16 µM): > 10000 nM
IC50 (second compound 10 µM): > 10000 nM
viability, T/C [1]: 86.9%
viability, T/C [2]: 83.5%
viability, T/C [3]: 109%
viability, T/C [4]: 107%
viability, T/C [5]: 97.8%
viability, T/C [6]: 94.3%
viability, T/C [7]: 123%
viability, T/C [8]: 95.2%
viability, T/C [9]: 106%
viability, T/C [10]: 93.3%
viability, T/C [11]: 104%
viability, T/C [12]: 89.5%
viability, T/C [13]: 96.3%
viability, T/C [14]: 95.5%
viability, T/C [15]: 103%
viability, T/C [16]: 96%
viability, T/C [17]: 87.4%
viability, T/C [18]: 98%
viability, T/C [19]: 88.1%
viability, T/C [20]: 97.1%
viability, T/C [21]: 105%
viability, T/C [22]: 74.3%
viability, T/C [23]: 99.9%
viability, T/C [24]: 83.3%
viability, T/C [25]: 94.3%
viability, T/C [26]: 96.8%
viability, T/C [27]: 87.9%
viability, T/C [28]: 102%
viability, T/C [29]: 92.5%
viability, T/C [30]: 88.1%
viability, T/C [31]: 90.5%
viability, T/C [32]: 81.2%
viability, T/C [33]: 86.8%
viability, T/C [34]: 86.8%
viability, T/C [35]: 72.4%
viability, T/C [36]: 70.2%

CC1COCCN1c1cc(-c2ccnn2C)c2ccnc(-c3ccn[nH]3)c2n1 (stereo unspecified) + Cc1[nH]c2ccc(F)cc2c1-c1nc2c3cccnc3c3ncccc3c2[nH]1
IC50 (second compound 0.0316 µM): 62 nM
IC50 (second compound 0.1 µM): 85.4 nM
IC50 (second compound 0.316 µM): 77.1 nM
IC50 (second compound 1 µM): 57.2 nM
IC50 (second compound 3.16 µM): 64.2 nM
IC50 (second compound 10 µM): 69.8 nM
viability, T/C [1]: 71.8%
viability, T/C [2]: 34.2%
viability, T/C [3]: 19.2%
viability, T/C [4]: 10.6%
viability, T/C [5]: 10.7%
viability, T/C [6]: 11.7%
viability, T/C [7]: 60.5%
viability, T/C [8]: 48.3%
viability, T/C [9]: 16.8%
viability, T/C [10]: 10.9%
viability, T/C [11]: 11.1%
viability, T/C [12]: 13.2%
viability, T/C [13]: 67%
viability, T/C [14]: 45%
viability, T/C [15]: 18.7%
viability, T/C [16]: 10.4%
viability, T/C [17]: 12.3%
viability, T/C [18]: 11.3%
viability, T/C [19]: 61.1%
viability, T/C [20]: 39.5%
viability, T/C [21]: 19.1%
viability, T/C [22]: 10.3%
viability, T/C [23]: 10.6%
viability, T/C [24]: 9.82%
viability, T/C [25]: 64.9%
viability, T/C [26]: 40.6%
viability, T/C [27]: 15.8%
viability, T/C [28]: 9.36%
viability, T/C [29]: 11.8%
viability, T/C [30]: 12%
viability, T/C [31]: 70.3%
viability, T/C [32]: 40.7%
viability, T/C [33]: 18.2%
viability, T/C [34]: 10.9%
viability, T/C [35]: 11.2%
viability, T/C [36]: 11.4%

Source: PubChem BioAssay AID2060509 (Molecular Pharmacology Branch, DTP, NCI, 2025)
